Laboratory results published in patent publication US9840498B2, “Substituted quinazolin-4-one derivatives” (NOVARTIS AG, priority 2013, dated 2017).

Biological target: PI3K delta (Homo sapiens (Human), UniProt O00329)
Experiment: Biochemical assay for PI3Kdelta (Adapta TR-FRET format)
Conditions: enzymatic assay
From the text: For the enzymatic assays, the preparation of PI3K gene constructs, protein expression and purification for HTS are described in WO2012/004299. […] The TR-FRET Adapta™ Universal Kinase Assay Kit was purchased from Invitrogen Corporation (Carlsbad/CA, USA) (Cat. No. PV5099). The kit contains the following reagents: Adapta Eu-anti-ADP Antibody (Europium labeled anti-ADP antibody in HEPES buffered saline, Cat. No. PV5097), Alexa Fluor® 647-labeled ADP tracer (Alexa Fluor® 647-labeled ADP tracer in HEPES buffered saline, Cat. No. PV5098), proprietary TR-FRET dilution buffer pH 7.5 (Cat. No. PV3574). PIK3CD substrate Phosphatidylinositol was obtained from Invitrogen (vesicules consisting of 2 mM PI in 50 mM HEPES pH7.5; Cat. No. PV5371). PIK3CG substrate Phosphatidylinositol-4,5-bisphosphate (PIP(4,5)2 was obtained from Invitrogen (PIP2:PS large unilamellar vesicules consisting of 1 mM PI P2: 19 mM PS in 50 mM HEPES pH7.5, 3 mM MgCl2, 1 mM EGTA; Cat. No. PV5100). Time-Resolved Fluorescence Resonance Energy Transfer (TR-FRET) is a technology based on energy transfer between two adjacent dyes, from an excited electron in one dye (the donor) to an electron of an adjacent dye (the acceptor) through resonance, then released as a photon. This energy transfer is detected by an increase in the fluorescence emission of the acceptor, and a decrease in the fluorescence emission of the donor. TR-FRET assays for protein kinases use a long-lifetime lanthanide Terbium or Europium chelates as the donor species which overcome interference from compound autofluorescence or light scatter from precipitated compounds, by introducing a delay after excitation by a flashlamp excitation source. Results are often expressed as a ratio of the intensities of the acceptor and donor fluorophores. The ratiometric nature of such a value corrects for differences in assay volumes between wells, as well as corrects for quenching effects due to colored compounds. The Adapta™ assay can be divided into two phases: a kinase reaction phase and an ADP detection phase. In the kinase reaction phase, all kinase reaction components are added to the well and the reaction is allowed to incubate for a set period of time specific for each kinase. After the reaction, a detection solution of Eu-labeled anti-ADP antibody, Alexa Fluor® 647-labeled ADP tracer, and EDTA (to stop the kinase reaction) are added to the assay well. ADP formed by the kinase reaction will displace the Alexa Fluor® 647-labeled ADP tracer from the antibody, resulting in a decrease in TR-FRET signal. In the presence of an inhibitor, the amount of ADP formed by the kinase reaction is reduced, and the resulting intact antibody-tracer interaction maintains a high TR-FRET signal. In the Adapta™ assay, the donor (Europium-anti-ADP antibody) is excited at 340 nm and will transfer its energy to the acceptor (Alexa Fluor® 647-labeled ADP tracer). The emission from the Alexa Fluor® 647 can be monitored with a filter centered at 665 nm because it is located between the emission peaks of the donor, which is measured at 615/620 nm. 50 nL of compound dilutions were dispensed onto white 384-well small volume polystyrene plate as described in section 2.2. Then 5 μL of PI3Kgamma and PI3Kdelta and lipid substrate (PI or PIP2:PS) followed by 5 μL of ATP (final assay volume 10 μL) are incubated at RT. […] Reactions were stopped with 5 μL of a mixture of EDTA containing the Eu-labeled anti-ADP antibody and the Alexa Fluor® 647-labeled ADP tracer in TR-FRET dilution buffer (proprietary to IVG). Plates are read 15 to 60 mins later in a Synergy2 reader using an integration time of 0.4 seconds and a delay of 0.05 seconds. […] The control for the 0% inhibition was given by the solvent vehicle of the compounds (90% DMSO in H2O). Data are analyzed using Excel fit software or Graphpad Prism. EC50 values were derived by fitting a sigmoidal dose-response curve to a plot of assay readout over inhibitor concentration. […]

PI3K delta, sequence (O00329 2-1044): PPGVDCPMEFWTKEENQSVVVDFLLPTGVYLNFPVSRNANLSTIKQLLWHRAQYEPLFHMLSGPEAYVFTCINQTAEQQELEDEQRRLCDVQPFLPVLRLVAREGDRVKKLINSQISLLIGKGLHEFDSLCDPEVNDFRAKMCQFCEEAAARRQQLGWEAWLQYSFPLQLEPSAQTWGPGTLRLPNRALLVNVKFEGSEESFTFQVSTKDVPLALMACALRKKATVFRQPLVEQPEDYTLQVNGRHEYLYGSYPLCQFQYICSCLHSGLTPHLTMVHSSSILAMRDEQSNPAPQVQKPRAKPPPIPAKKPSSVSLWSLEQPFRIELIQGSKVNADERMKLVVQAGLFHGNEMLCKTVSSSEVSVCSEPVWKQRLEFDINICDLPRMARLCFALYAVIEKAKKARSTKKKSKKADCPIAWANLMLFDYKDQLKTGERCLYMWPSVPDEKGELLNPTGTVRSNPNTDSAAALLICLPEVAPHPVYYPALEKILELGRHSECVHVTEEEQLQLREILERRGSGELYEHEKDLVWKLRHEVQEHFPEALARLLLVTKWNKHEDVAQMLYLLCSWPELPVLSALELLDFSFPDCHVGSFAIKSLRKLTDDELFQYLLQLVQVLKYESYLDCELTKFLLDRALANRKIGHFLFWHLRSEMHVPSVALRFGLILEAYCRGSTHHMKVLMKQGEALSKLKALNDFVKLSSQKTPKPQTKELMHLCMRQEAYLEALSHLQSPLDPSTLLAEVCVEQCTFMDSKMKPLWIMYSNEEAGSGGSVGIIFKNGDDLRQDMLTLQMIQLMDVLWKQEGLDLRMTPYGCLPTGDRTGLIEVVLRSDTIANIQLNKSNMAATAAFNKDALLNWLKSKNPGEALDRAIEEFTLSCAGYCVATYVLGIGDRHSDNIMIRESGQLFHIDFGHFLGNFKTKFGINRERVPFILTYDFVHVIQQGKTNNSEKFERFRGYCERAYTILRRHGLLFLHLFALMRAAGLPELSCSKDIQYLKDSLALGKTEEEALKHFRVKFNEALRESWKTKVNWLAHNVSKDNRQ
PI3K delta, sequence (P27986 461-568 partner): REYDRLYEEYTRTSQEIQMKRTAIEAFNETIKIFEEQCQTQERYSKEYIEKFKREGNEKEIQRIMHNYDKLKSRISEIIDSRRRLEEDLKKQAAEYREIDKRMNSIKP

| SMILES | IC50 [nM] |
| --- | --- |
| Cc1nc(N)nc(N2C[C@@H](F)C[C@H]2c2nc3cccc(-c4cnn(C)c4)c3c(=O)n2-c2ccccc2)c1C#N [Example 30, 2-Amino-4-((2S,4S)-4-fluoro-2-(5-(1-methyl-1H-pyrazol-4-yl)-4-oxo-3-phenyl-3,4-dihydroquinazolin-2-yl)pyrrolidin-1-yl)-6-methylpyrimidine-5-carbonitrile] | 14 |
| CO[C@H]1C[C@@H](c2nc3cccc(-c4cnn(C)c4)c3c(=O)n2-c2ccccc2)N(c2nc(N)nc3[nH]cnc23)C1 [Example 11, 2-((2S,4S)-1-(2-Amino-9H-purin-6-yl)-4-methoxypyrrolidin-2-yl)-5-(1-methyl-1H-pyrazol-4-yl)-3-phenylquinazolin-4(3H)-one] | 45 |
| Cn1cc(-c2c(F)ccc3nc([C@@H]4C[C@H](O)CN4c4ncnc(N)c4C#N)n(-c4ccccc4)c(=O)c23)cn1 [Example 8, 4-Amino-6-((2S,4S)-2-(6-fluoro-5-(1-methyl-1H-pyrazol-4-yl)-4-oxo-3-phenyl-3,4-dihydroquinazolin-2-yl)-4-hydroxypyrrolidin-1-yl) pyrimidine-5-carbonitrile] | 14 |
| Cc1nc(N)nc(N2CCC[C@H]2c2nc3cccc(-c4cnn(C)c4)c3c(=O)n2-c2ccccc2)c1C#N [Example 13, (S)-2-Amino-4-methyl-6-(2-(5-(1-methyl-1H-pyrazol-4-yl)-4-oxo-3-phenyl-3,4-dihydroquinazolin-2-yl)pyrrolidin-1-yl)pyrimidine-5-carbonitrile] | 7 |
| Cc1nc(N)nc(N2C[C@@H](O)C[C@H]2c2nc3cccc(-c4cnn(CCO)c4)c3c(=O)n2-c2ccccc2)c1C#N [Example 28, 2-Amino-4-((2S,4S)-4-hydroxy-2-(5-(1-(2-hydroxyethyl)-1H-pyrazol-4-yl)-4-oxo-3-phenyl-3,4-dihydroquinazolin-2-yl)pyrrolidin-1-yl)-6-methylpyrimidine-5-carbonitrile] | 10 |
| Cc1nc(N)nc(N2CCC[C@H]2c2nc3cccc(-c4cncnc4)c3c(=O)n2-c2ccccc2)c1C#N [Example 17, (S)-2-Amino-4-methyl-6-(2-(4-oxo-3-phenyl-5-(pyrimidin-5-yl)-3,4-dihydroquinazolin-2-yl)pyrrolidin-1-yl)pyrimidine-5-carbonitrile] | 21 |
| Cc1ccccc1-n1c([C@@H]2CCCN2c2ncnc(N)c2C#N)nc2cccc(-c3cnn(C)c3)c2c1=O [Example 14, (S)-4-Amino-6-(2-(5-(1-methyl-1H-pyrazol-4-yl)-4-oxo-3-(otolyl)-3,4-dihydroquinazolin-2-yl)pyrrolidin-1-yl)pyrimidine-5-carbonitrile] | 74 |

Molecules with a lower IC50, results first:

| IC50 [nM] | SMILES |
| --- | --- |
| 5 | COc1ncc(-c2cccc3nc([C@@H]4C[C@H](O)CN4c4nc(N)nc(C)c4C#N)n(-c4ccccc4)c(=O)c23)cn1 [Example 22, 2-Amino-4-((2S,4S)-4-hydroxy-2-(5-(2-methoxypyrimidin-5-yl)-4-oxo-3-phenyl-3,4-dihydroquinazolin-2-yl)pyrrolidin-1-yl)-6-methylpyrimidine-5-carbonitrile] |
| 6 | CO[C@H]1C[C@@H](c2nc3cccc(-c4cnn(C)c4)c3c(=O)n2-c2ccccc2)N(c2nc(N)nc(C)c2C#N)C1 [Example 10, 2-Amino-4-((2S,4S)-4-methoxy-2-(5-(1-methyl-1H-pyrazol-4-yl)-4-oxo-3-phenyl-3,4-dihydroquinazolin-2-yl)pyrrolidin-1-yl)-6-methylpyrimidine-5-carbonitrile] |
| 5 | CCOc1ncc(-c2cccc3nc([C@@H]4CCCN4c4nc(N)nc(C)c4C#N)n(-c4ccccc4)c(=O)c23)cn1 [Example 32, (S)-2-Amino-4-(2-(5-(2-ethoxypyrimidin-5-yl)-4-oxo-3-phenyl-3,4-dihydroquinazolin-2-yl)pyrrolidin-1-yl)-6-methylpyrimidine-5-carbonitrile] |
| 5 | Cc1nc(N)nc(N2C[C@@H](O)C[C@H]2c2nc3cccc(-c4cccnc4)c3c(=O)n2-c2ccccc2)c1C#N [Example 24, 2-Amino-4-((2S,4S)-4-hydroxy-2-(4-oxo-3-phenyl-5-(pyridin-3-yl)-3,4-dihydroquinazolin-2-yl)pyrrolidin-1-yl)-6-methylpyrimidine-5-carbonitrile] |
